Test results: patent publication US7452865B2, “Antagonistic analogs of GH RH (2003)” (The Administrare's of the Tulane Educational Fund, priority 2004, dated 2008)
Marks after values point to notes of the source that are not given here. Square brackets hold non-standard residues; d marks the D form. Peptide text beside a SMILES is read from it. * marks the point of attachment. Phe(4-Cl) = N[C@@H](Cc1ccc(Cl)cc1)C(=O)O; hArg = N=C(N)NCCCC[C@H](N)C(=O)O; Nle = CCCC[C@H](N)C(=O)O; Abu = CC[C@H](N)C(=O)O; PhAc = O=C(Cc1ccccc1)*

How the values were obtained:
[1] = test system: H-69 human SCLC xenografts; assay: H-69 human SCLC xenografts in nude mice: tumor growth; format: in vivo
Protocol: Male nude mice were implanted s.c. with 3 mm^3 pieces of H-69 human SCLC tissue. When tumors reached a volume of approx. 80 mm^3 the mice were divided into 4 experimental groups of 7-8 animals each and received the following treatment for 4 weeks: group I (control), vehicle solution; group 2, Peptide 67 (10 μg/day s.c.); group 3, Peptide 31 (10 μg/day s.c.); group 4, Peptide 72 (10 μg/day s.c.). Tumor volumes were recorded twice a week. At the end of treatment, mice were anesthetized with isoflurane, killed by decapitation, and tumors were excised and weighed. Data are presented as means±S.E. Data were evaluated by one way ANOVA and the Student-Newman-Keuls test.

[2] = test system: GH-RH receptor isoforms on membrane fractions of human PC-3 prostate tumors; format: binding; settings: general statement
Summary of the method: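 Competitive displacement of [^125I]JV-1-42 from crude membranes of human PC-3 prostate tumours grown as nude-mouse xenografts, with unlabelled peptides at 10^−12 to 10^−6 M. Bound radioactivity in the centrifuged pellet gamma-counted; Ki from Munson–Rodbard analysis. Relative affinity = Ki of reference peptide (JV-1-36 or JV-1-38) / Ki of test antagonist.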

[3] = test system: PC-3 human prostate cancer xenografts; assay: PC-3 xenografts in nude mice, Experiment 2: tumor growth; format: in vivo
Protocol: (§1) Male nude mice were implanted s.c. with 3 mm^3 pieces of PC-3 human hormone-independent prostate cancer tissue on both flanks. When tumors reached a volume of approx. 50 mm^3, the mice were divided into 5 experimental groups with 7 to 8 animals in each group and received single daily injections for 28 days as follows: 1. Control (vehicle solution); 2. JV-1-38 (10 μg/day s.c.); 3 Peptide 31 (10 μg/day s.c.); 4. Peptide 67 (10 μg/day s.c.); 5. Peptide 62 (10 μg/day s.c.). Tumor volumes were measured twice a week. The experiment was ended on day 29 by sacrificing the mice under Isoflurane anesthesia. Resulting tumors were cleaned, weighed, and snap-frozen until further analyses. Trunk blood was collected from the abdominal aorta and serum was separated for RIA measurement of IGF-I. Statistical analyses of the measurement results were done by two-tailed t-test; data are presented as the means±S.E.
(§2) Experiment 2 was similar to Experiment 1, with the difference that Experiment 2 was started when PC-3 tumors had grown to approximately 30 mm^3 in volume. At this time, the animals were divided into 8 experimental groups with 8 animals in each group, and received single daily injections for 28 days as follows. 1. Control (vehicle solution); 2. JV-1-38 (10 μg/day s.c.); 3. Peptide 46 (5 μg/day: s.c.); 4. Peptide 77 (5 μg/day s.c); 5. Peptide 76 (5 μg/day s.c.); 6. Peptide 70 (5 μg/day s.c.); 7 Peptide 79 (5 μg/day s.c.); 8. Peptide 80 (5 μg/day s.c.). Further details of Experiment 2 are the same as for Experiment 1.

[4] = test system: IGF-I; assay: PC-3 xenografts, Experiment 2: serum IGF-I (RIA); format: in vivo, nude mice; settings: 5 μg/day s.c., 28 days
Text: (§3) For the measurement of GH and IGF-I levels in the serum, as well as IGF-I and IGF-II concentrations in the cytosol fraction of tumors, blood samples and tumor samples were collected and processed as described (Braczkowski R, Schally A V, Plonowski A, Varga J L, Groot K, Krupa M, Armatis P, Cancer 95: 1735-1745, 2002), hereby incorporated by reference. Briefly, blood samples are centrifuged to separate the serum, tumors are homogenized and centrifuged to separate the cytosol fraction. Serum GH is then measured by the double-antibody RIA method. Before measurement by RIA, IGF-I and IGF-II are extracted from serum and cytosol fractions using an acid-ethanol cryoprecipitation method that eliminates most of the IGF binding proteins, which can interfere with the RIA. IGF-I concentration is measured by RIA using IGF-I as a standard and goat anti-IGF-I antibody (both from DSL Inc., Webster, Tex.). IGF-II concentration is measured by RIA using human recombinant IGF-II (Bachem) as a standard and anti-IGF-II monoclonal antibody (Amano International Enzyme, Troy, Va.).
as §1, §2

[5] = test system: PC-3 human prostate cancer xenografts; assay: PC-3 xenografts in nude mice, Experiment 1: tumor growth; format: in vivo
Protocol: as §1

[6] = test system: IGF-I; assay: PC-3 xenografts, Experiment 1: serum IGF-I (RIA); format: in vivo, nude mice; settings: 10 μg/day s.c., 28 days
Text: as §3, §1

[7] = test system: hGH-RH(1-29)NH2 induced GH release; assay: Inhibition of GH release in superfused rat pituitary system; format: cell-based
Summary of the method: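 GH output was quantified by double-antibody RIA in superfusates of rat pituitary cells. Peptides were applied for 9 min at various concentrations before a 3-min 1 nM hGH-RH(1-29)NH2 pulse, with further pulses 30–120 min later; net integral responses given as percent of the original response.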

[8] = 5 μg/day s.c., 28 days, vs control
[9] = 10 μg/day s.c., 28 days, vs control

## [HOOC(CH2)12CO-Tyr^1, D-Arg^2, Phe(pCl)^6, Amp^9, Tyr(Me)^10, Abu^15, Nle^27, D-Arg^28, Har^29]hGH-RH(1-29)NH2 [Peptide 72]
[1]; 10 μg/day, single daily injections
  antiproliferative effect on H-69 tumors (in words): strongest antiproliferative effect
[1]; H-69, 10 μg/day s.c., 4 weeks
  Tumor volume (mm^3) Final: 308 ± 23* mm^3
[1]; H-69, 10 μg/day s.c., 4 weeks, vs control
  Tumor volume Final (% inhibition): (90%)
[1]; H-69, at start of treatment
  Tumor volume (mm^3) Initial: 81 ± 9 mm^3
[2]
  binding affinities to the tumoral receptors for GH-RH (in words): extremely high binding affinities

## [CH3(CH2)6CO-Tyr^1, D-Arg^2, Phe(pCl)^6, Cit^8, Amp^9, Tyr(Me)^10, His^11, Abu^15, Nle^27, D-Arg^28, Har^29]hGH-RH(1-29)NH2 [Peptide 76]
[3]; 5 μg/day groups, at start of treatment
  Tumor volume (mm^3) Initial: 26.8 ± 3.4 mm^3
[3]; 5 μg/day s.c., 28 days
  Tumor volume (mm^3) Final: 232 ± 30.8 mm^3
  Tumor volume doubling time: 9.4 ± 0.6 days
  Tumor weight: 226 ± 48.3 mg
[3]; [8]
  Tumor volume Final (% inhibition): (34%)
  Tumor weight (% inhibition): (20%)
[4]
  Serum IGF-I: 260 ± 29.7 ng/mL
[4]; vs control
  Serum IGF-I (% inhibition): 1%
[2]
  binding affinities to the tumoral receptors for GH-RH (in words): extremely high binding affinities

## CCCC[C@H](NC(=O)[C@@H](NC(=O)[C@H](CC(=O)O)NC(=O)[C@H](CCC(N)=O)NC(=O)[C@H](CC(C)C)NC(=O)[C@H](CC(C)C)NC(=O)[C@H](CCCCN)NC(=O)[C@H](CCCNC(=N)N)NC(=O)[C@H](C)NC(=O)[C@H](CO)NC(=O)[C@H](CC(C)C)NC(=O)[C@H](CCC(N)=O)NC(=O)[C@H](CC)NC(=O)[C@H](CC(C)C)NC(=O)[C@@H](NC(=O)[C@H](CCCCN)NC(=O)[C@H](Cc1c[nH]cn1)NC(=O)[C@H](Cc1ccc(OC)cc1)NC(=O)[C@H](CCCCNC(=N)N)NC(=O)[C@H](CC(N)=O)NC(=O)[C@@H](NC(=O)[C@H](Cc1ccc(Cl)cc1)NC(=O)[C@@H](NC(=O)[C@H](C)NC(=O)[C@H](CC(=O)O)NC(=O)[C@@H](CCCNC(=N)N)NC(=O)[C@H](Cc1ccc(O)cc1)NC(=O)Cc1ccccc1)[C@@H](C)CC)[C@@H](C)O)C(C)C)[C@@H](C)CC)C(=O)N[C@H](CCCNC(=N)N)C(=O)N[C@@H](CCCCNC(=N)N)C(N)=O [Peptide 62, [PhAc-Tyr^1, D-Arg^2, Phe(pCl)^6, Har^9, Tyr(Me)^10, His^11, Abu^15, Nle^27, D-Arg^28, Har^29]hGH-RH(1-29)NH2] (PhAc-Y[dR]DAI[Phe(4-Cl)]TN[hArg]Y(Me)HKVL[Abu]QLSARKLLQDI[Nle][dR][hArg]-NH2)
[2]
  binding affinities to the tumoral receptors for GH-RH (in words): extremely high binding affinities
[5]; 10 μg/day s.c., 28 days
  Tumor volume (mm^3) Final: 215 ± 50.4 mm^3
  Tumor volume doubling time: 18.4 ± 4.96 days
[5]; [9]
  Tumor volume Final (% inhibition): (57%)
  Tumor weight (% inhibition): (47%)
[5]; 10 μg/day s.c., compared with JV-1-38
  inhibitory effect on the growth of PC-3 tumors (in words): stronger inhibitory effect on the growth of PC-3 tumors than the reference peptide JV-1-38
[5]; at start of treatment
  Tumor volume (mm^3) Initial: 56.1 ± 18.2 mm^3
[6]
  Serum IGF-I: 141 ± 8.86 ng/mL
[6]; vs control
  Serum IGF-I (% inhibition): (5%)
[7]; antagonist 30 nM, 1 nM hGH-RH(1-29)NH2 at 0 min
  GH response (% of control) 0 min: 20 % of control
[7]; antagonist 30 nM, 1 nM hGH-RH(1-29)NH2 at 30 min
  GH response (% of control) 30 min: 16 % of control
[7]; antagonist 30 nM, 1 nM hGH-RH(1-29)NH2 at 60 min
  GH response (% of control) 60 min: 14 % of control
[7]; antagonist 30 nM, 1 nM hGH-RH(1-29)NH2 at 90 min
  GH response (% of control) 90 min: 21 % of control
[7]; antagonist 30 nM, 1 nM hGH-RH(1-29)NH2 at 120 min
  GH response (% of control) 120 min: 21 % of control
[7]; general statement, in vitro and in vivo
  endocrine antagonistic potency: inhibition of the GH release stimulated by hGH-RH(1-29)NH2 (in words): high endocrine antagonistic potencies
